Ki and Kis data for three molecules are collected here from ChEMBL document CHEMBL4699623 (J Med Chem, 2020).

Molecules are shown by their SMILES.

The target in assay [1] is T1, Phenylethanolamine N-methyltransferase (Homo sapiens, UniProt P11086).
T1 sequence (P11086 whole entry): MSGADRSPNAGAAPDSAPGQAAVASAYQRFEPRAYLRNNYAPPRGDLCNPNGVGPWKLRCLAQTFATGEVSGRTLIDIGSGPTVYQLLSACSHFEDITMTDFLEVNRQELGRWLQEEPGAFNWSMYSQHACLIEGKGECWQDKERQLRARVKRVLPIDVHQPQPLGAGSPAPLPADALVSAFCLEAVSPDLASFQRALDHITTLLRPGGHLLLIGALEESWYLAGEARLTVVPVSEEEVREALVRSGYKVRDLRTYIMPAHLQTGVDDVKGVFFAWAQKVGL
The assay is described as follows: Competitive inhibition of C-terminal hexahistidine tag in human recombinant PNMT expressed in Escherichia coli assessed as inhibition constant using AdoMet as substrate in presence of 100 uM PEA as co-substrate by Sigma-plot analysis.

The target of assay [2] is T2, Alpha-2A adrenergic receptor (Rattus norvegicus, UniProt P22909).
T2 sequence (P22909 whole entry): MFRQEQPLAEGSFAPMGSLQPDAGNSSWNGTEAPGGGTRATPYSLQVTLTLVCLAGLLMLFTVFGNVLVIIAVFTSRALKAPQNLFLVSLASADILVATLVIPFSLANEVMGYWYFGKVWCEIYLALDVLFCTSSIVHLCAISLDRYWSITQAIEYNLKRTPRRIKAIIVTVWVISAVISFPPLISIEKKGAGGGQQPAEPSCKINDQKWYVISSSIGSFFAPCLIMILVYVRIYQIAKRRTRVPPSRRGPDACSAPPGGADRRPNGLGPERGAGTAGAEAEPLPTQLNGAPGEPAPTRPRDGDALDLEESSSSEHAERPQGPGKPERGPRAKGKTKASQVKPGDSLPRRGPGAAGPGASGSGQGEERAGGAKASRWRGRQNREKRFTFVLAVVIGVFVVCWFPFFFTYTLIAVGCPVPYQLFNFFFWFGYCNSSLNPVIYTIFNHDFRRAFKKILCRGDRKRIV
The assay is described as follows: Displacement of [3H]-clonidine from Sprague-Dawley rat alpha2 adrenergic receptor by radioligand binding assay. Background: In a radioligand displacement assay an active substance lowers the binding of a labelled ligand.

Assay [3] concerns the target T3, Phenylethanolamine N-methyltransferase (Homo sapiens) (UniProt P11086).
T3 sequence (whole entry): T1 sequence (P11086 whole entry)

In the case of `Nc1ncnc2c1ncn2[C@@H]1O[C@H](CSCC[C@H](N)C(=O)O)[C@@H](O)[C@H]1O` [S-ADENOSYLHOMOCYSTEINE], the Ki in assay [1] amounted to 14 µM.

In turn, `NCC1Cc2ccccc2CN1` (stereo not given) came in with a Ki in assay [2] of 1.5 µM. The Kis in assay [3] was determined as 1.4 µM.

Turning to `NC(=O)C1Cc2ccccc2CN1` (stereo not given), in assay [2], the Ki came out at 250 µM. The Kis in assay [3] was determined as 31 µM.

The Ki is a measure of affinity in units of concentration, obtained from inhibition or displacement.
